Measured values taken from publication PMC7178819, “6,7-Dimethoxy-2-phenethyl-1,2,3,4-tetrahydroisoquinoline amides and corresponding ester isosteres as multidrug resistance reversers” (Journal of Enzyme Inhibition and Medicinal Chemistry, 2020).

Assays:
MDCK-MDR1 cells = experiment: Co-administration assay with doxorubicin (MTT), MDCK-MDR1 cells; assay type: cell-based, canine; conditions: compound 10 µM + 10 µM doxorubicin, MDCK-MDR1
Protocol: (§1) The co-administration assay with doxorubicin was performed in MDCK-MDR1, HT29, HT29/DX, A549 and A549/DX cells at 48 h. On day 1, 10,000 cells/well were seeded into 96-well plates in a volume of 100 µL of fresh medium. On day 2, the tested drug was added alone to the cells at different concentrations (ranging from 40 nM to 10 µM). On day 3, the medium was removed and the drug at the same concentrations was added alone and in co-administration with 10 µM doxorubicin to the cells. After the established incubation time with the tested drug, MTT (0.5 mg/mL) was added to each well, and after 3 − 4 h incubation at 37 °C, the supernatant was removed. The formazan crystals were solubilised using 100 µL of DMSO/EtOH (1:1), and the absorbance values at 570 and 630 nm were determined on the microplate reader HTX Synergy (Bio-Tek Instruments).

HT29 cells = experiment: Co-administration assay with doxorubicin (MTT), HT29 cells; assay type: cell-based, human; conditions: compound 10 µM + 10 µM doxorubicin
Protocol: as §1

A549/DX cells = experiment: Co-administration assay with doxorubicin (MTT), A549/DX cells; assay type: cell-based, human; conditions: compound 10 µM + 10 µM doxorubicin
Protocol: as §1

A549 cells = experiment: Co-administration assay with doxorubicin (MTT), A549 cells; assay type: cell-based, human; conditions: compound 10 µM + 10 µM doxorubicin
Protocol: as §1

COc1ccc(C(=O)Nc2ccc(CCN3CCc4cc(OC)c(OC)cc4C3)cc2)c(OC)c1 [Compound 3, N-(4–(2-(6,7-dimethoxy-3,4-dihydroisoquinolin-2(1H)-yl)ethyl)phenyl)-2,4-dimethoxybenzamide]
cytotoxicity, co-administration with doxorubicin (MDCK-MDR1 cells): 77%
reduction of cell viability, co-administration with doxorubicin (HT29 cells): 5%
reduction of cell viability, co-administration with doxorubicin (A549/DX cells): 40%
reduction of cell viability, co-administration with doxorubicin (A549 cells): 25%

COc1cc2c(cc1OC)CN(CCc1ccc(NC(=O)c3c(OC)c(OC)cc4ccccc34)cc1)CC2 [Compound 8, N-(4–(2-(6,7-dimethoxy-3,4-dihydroisoquinolin-2(1H)-yl)ethyl)phenyl)-2,3-dimethoxy-1-naphthamide]
cytotoxicity, co-administration with doxorubicin (MDCK-MDR1 cells): around 50%
reduction of cell viability, co-administration with doxorubicin (HT29 cells): 10%
reduction of cell viability, co-administration with doxorubicin (A549/DX cells): 49%
reduction of cell viability, co-administration with doxorubicin (A549 cells): 25%
